Results reported in patent publication US10519152B2, “Compounds and their use in treating cancer” (AstraZeneca AB, priority 2017, dated 2019).

Target: T1, Estrogen Receptor (ERα) in MCF-7 human ductal carcinoma breast cell line (Homo sapiens, UniProt P03372)
T1 construct: endogenous in cells; host or cells: MCF-7
T1 sequence (P03372 1-595): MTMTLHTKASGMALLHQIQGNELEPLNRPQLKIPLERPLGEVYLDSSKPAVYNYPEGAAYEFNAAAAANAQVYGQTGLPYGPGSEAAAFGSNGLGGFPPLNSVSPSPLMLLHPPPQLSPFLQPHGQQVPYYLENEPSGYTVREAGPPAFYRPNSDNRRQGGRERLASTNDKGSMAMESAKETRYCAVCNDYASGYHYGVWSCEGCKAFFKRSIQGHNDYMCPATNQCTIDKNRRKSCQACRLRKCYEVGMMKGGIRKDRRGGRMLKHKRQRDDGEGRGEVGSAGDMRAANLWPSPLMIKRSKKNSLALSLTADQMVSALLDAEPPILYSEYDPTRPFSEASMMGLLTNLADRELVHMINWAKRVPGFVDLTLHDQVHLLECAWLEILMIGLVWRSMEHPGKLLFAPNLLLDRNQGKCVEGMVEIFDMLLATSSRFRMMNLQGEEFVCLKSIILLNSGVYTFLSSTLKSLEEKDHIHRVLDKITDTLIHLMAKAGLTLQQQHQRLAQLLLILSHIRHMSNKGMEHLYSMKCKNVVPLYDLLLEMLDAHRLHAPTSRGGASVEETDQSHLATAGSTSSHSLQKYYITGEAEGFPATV
Experiment: MCF-7 ER degradation assay (cell based immuno-fluorescence)
Settings: MCF-7 cells; for ER degradation ≥ 90% at 0.3 μM: ER degradation by fulvestrant at 0.3 μM is defined as 100%; for DC50: 18-22 hours incubation, 50% reduction of ERα expression, single experiment or average of two or more, read-out: MCF-7 ER degradation IC50
Method in brief: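 MCF-7 human ductal carcinoma breast cells were seeded at 3.75×10^4 cells per mL (40 μL per well) in 384 well plates with phenol red free DMEM containing 2 mM L-Glutamine and 5% (v/v) Charcoal/Dextran treated foetal calf serum. After overnight culture, compounds were acoustically dispensed, incubated 18-22 hours, then cells were formaldehyde-fixed and immunostained for ERα.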

Compound: Cc1ncsc1-c1ccc([C@H](C)NC(=O)[C@@H]2C[C@@H](O)CN2C(=O)[C@@H](NC(=O)COCCOCCOCCOc2cc(F)c([C@@H]3c4[nH]c5ccccc5c4C[C@@H](C)N3CC(C)(C)F)c(F)c2)C(C)(C)C)cc1 [Example 3, (2S,4R)-1-((S)-2-(tert-Butyl)-14-(3,5-difluoro-4-((1R,3R)-2-(2-fluoro-2-methylpropyl)-3-methyl-2,3,4,9-tetrahydro-1H-pyrido[3,4-b]indol-1-yl)phenoxy)-4-oxo-6,9,12-trioxa-3-azatetradecanoyl)-4-hydroxy-N—((S)-1-(4-(4-methylthiazol-5-yl)phenyl)ethyl)pyrrolidine-2-carboxamide]
- ER degradation ≥ 90% at 0.3 μM: ••
- DC50: 0.3 nM

Compound: Cc1ncsc1-c1ccc(CNC(=O)[C@@H]2C[C@@H](O)CN2C(=O)[C@@H](NC(=O)COCc2ccc(OCCOc3cc(F)c([C@@H]4c5[nH]c6ccccc6c5C[C@@H](C)N4CC(C)(C)F)c(F)c3)cc2)C(C)(C)C)cc1 [Example 4, (2S,4R)-1-((S)-2-(2-((4-(2-(3,5-Difluoro-4-((1R,3R)-2-(2-fluoro-2-methylpropyl)-3-methyl-2,3,4,9-tetrahydro-1H-pyrido[3,4-b]indol-1-yl)phenoxy)ethoxy)benzyl)oxy)acetamido)-3,3-dimethylbutanoyl)-4-hydroxy-N-(4-(4-methylthiazol-5-yl)benzyl)pyrrolidine-2-carboxamide]
- ER degradation ≥ 90% at 0.3 μM: •
- DC50: 2.1 nM

Compound: Cc1ncsc1-c1ccc(CNC(=O)[C@@H]2C[C@@H](O)CN2C(=O)[C@@H](NC(=O)COCCOCCOCCOCC(=O)Nc2ccc([C@@H]3c4[nH]c5ccccc5c4C[C@@H](C)N3CC(C)(C)F)cc2)C(C)(C)C)cc1 [Example 55, N^1-(4-((1R,3R)-2-(2-fluoro-2-methylpropyl)-3-methyl-2,3,4,9-tetrahydro-1H-pyrido[3,4-b]indol-1-yl)phenyl)-N^14—((S)-1-((2S,4R)-4-hydroxy-2-((4-(4-methylthiazol-5-yl)benzyl)carbamoyl)pyrrolidin-1-yl)-3,3-dimethyl-1-oxobutan-2-yl)-3,6,9,12-tetraoxatetradecanediamide, Trifluoroacetic Acid]
- ER degradation ≥ 90% at 0.3 μM: •
- DC50: 1.2 nM

Compound: Cc1ncsc1-c1ccc(CNC(=O)[C@@H]2C[C@@H](O)CN2C(=O)[C@@H](NC(=O)COCCOCCOCCOCCOCC(=O)Nc2ccc([C@@H]3c4[nH]c5ccccc5c4C[C@@H](C)N3CC(C)(C)F)cc2)C(C)(C)C)cc1 [Example 56, N^1-(4-((1R,3R)-2-(2-fluoro-2-methylpropyl)-3-methyl-2,3,4,9-tetrahydro-1H-pyrido[3,4-b]indol-1-yl)phenyl)-N^17—((S)-1-((2S,4R)-4-hydroxy-2-((4-(4-methylthiazol-5-yl)benzyl)carbamoyl)pyrrolidin-1-yl)-3,3-dimethyl-1-oxobutan-2-yl)-3,6,9,12,15-pentaoxaheptadecanediamide, Trifluoroacetic Acid]
- ER degradation ≥ 90% at 0.3 μM: ••
- DC50: 1.5 nM

Compound: Cc1ncsc1-c1ccc(CNC(=O)[C@@H]2C[C@@H](O)CN2C(=O)[C@@H](NC(=O)COCCOCCOCC(=O)Nc2ccc([C@@H]3c4[nH]c5ccccc5c4C[C@@H](C)N3CC(C)(C)F)cc2)C(C)(C)C)cc1 [Example 57, (2S,4R)-1-((S)-2-(tert-butyl)-14-((4-((1R,3R)-2-(2-fluoro-2-methylpropyl)-3-methyl-2,3,4,9-tetrahydro-1H-pyrido[3,4-b]indol-1-yl)phenyl)amino)-4,14-dioxo-6,9,12-trioxa-3-azatetradecanoyl)-4-hydroxy-N-(4-(4-methylthiazol-5-yl)benzyl)pyrrolidine-2-carboxamide, Trifluoroacetic Acid]
- ER degradation ≥ 90% at 0.3 μM: •
- DC50: 0.9 nM

Compound: Cc1ncsc1-c1ccc(CNC(=O)[C@@H]2C[C@@H](O)CN2C(=O)[C@@H](NC(=O)COCCOCCNC(=O)/C=C/c2cc(F)c([C@@H]3c4[nH]c5ccccc5c4C[C@@H](C)N3CC(C)(C)F)c(F)c2)C(C)(C)C)cc1 [Example 58, (2S,4R)-1-((S,E)-2-(tert-butyl)-15-(3,5-difluoro-4-((1R,3R)-2-(2-fluoro-2-methylpropyl)-3-methyl-2,3,4,9-tetrahydro-1H-pyrido[3,4-b]indol-1-yl)phenyl)-4,13-dioxo-6,9-dioxa-3,124-diazapentadec-4-enoyl)-4-hydroxy-N-(4-(4-methylthiazol-5-yl)benzyl)pyrrolidine-2-carboxamide, Trifluoroacetic Acid]
- ER degradation ≥ 90% at 0.3 μM: •
- DC50: 0.4 nM

Compound: Cc1ncsc1-c1ccc(CNC(=O)[C@@H]2C[C@@H](O)CN2C(=O)[C@@H](NC(=O)CCCCNC(=O)/C=C/c2cc(F)c([C@@H]3c4[nH]c5ccccc5c4C[C@@H](C)N3CC(C)(C)F)c(F)c2)C(C)(C)C)cc1 [Example 60, (2S,4R)-1-((S)-2-(5-((E)-3-(3,5-difluoro-4-((1R,3R)-2-(2-fluoro-2-methylpropyl)-3-methyl-2,3,4,9-tetrahydro-1H-pyrido[3,4-b]indol-1-yl)phenyl)acrylamido)pentanamido)-3,3-dimethylbutanoyl)-4-hydroxy-N-(4-(4-methylthiazol-5-yl)benzyl)pyrrolidine-2-carboxamide, Trifluoroacetic Acid]
- ER degradation ≥ 90% at 0.3 μM: •
- DC50: 0.5 nM

Compound: Cc1ncsc1-c1ccc(CNC(=O)[C@@H]2C[C@@H](O)CN2C(=O)[C@@H](NC(=O)COc2ccc(OCCNC(=O)/C=C/c3cc(F)c([C@@H]4c5[nH]c6ccccc6c5C[C@@H](C)N4CC(C)(C)F)c(F)c3)cc2)C(C)(C)C)cc1 [Example 61, (2S,4R)-1-((S)-2-(2-(4-(2-((E)-3-(3,5-difluoro-4-((1R,3R)-2-(2-fluoro-2-methylpropyl)-3-methyl-2,3,4,9-tetrahydro-1H-pyrido[3,4-b]indol-1-yl)phenyl)acrylamido)ethoxy)phenoxy)acetamido)-3,3-dimethylbutanoyl)-4-hydroxy-N-(4-(4-methylthiazol-5-yl)benzyl)pyrrolidine-2-carboxamide, Trifluoroacetic Acid]
- ER degradation ≥ 90% at 0.3 μM: ••
- DC50: 0.7 nM

Compound: Cc1ncsc1-c1ccc(CNC(=O)[C@@H]2C[C@@H](O)CN2C(=O)[C@@H](NC(=O)COCCNC(=O)/C=C/c2cc(F)c([C@@H]3c4[nH]c5ccccc5c4C[C@@H](C)N3CC(C)(C)F)c(F)c2)C(C)(C)C)cc1 [Example 62, (2S,4R)-1-((S)-2-(2-(2-((E)-3-(3,5-difluoro-4-((1R,3R)-2-(2-fluoro-2-methylpropyl)-3-methyl-2,3,4,9-tetrahydro-1H-pyrido[3,4-b]indol-1-yl)phenyl)acrylamido)ethoxy)acetamido)-3,3-dimethylbutanoyl)-4-hydroxy-N-(4-(4-methylthiazol-5-yl)benzyl)pyrrolidine-2-carboxamide, Trifluoroacetic Acid]
- ER degradation ≥ 90% at 0.3 μM: •
- DC50: 0.6 nM

Compound: Cc1ncsc1-c1ccc(CNC(=O)[C@@H]2C[C@@H](O)CN2C(=O)[C@@H](NC(=O)COCCOCCOCCNC(=O)/C=C/c2cc(F)c([C@@H]3c4[nH]c5ccccc5c4C[C@@H](C)N3CC(C)(C)F)c(F)c2)C(C)(C)C)cc1 [Example 63, (2S,4R)-1-((S,E)-2-(tert-butyl)-18-(3,5-difluoro-4-((1R,3R)-2-(2-fluoro-2-methylpropyl)-3-methyl-2,3,4,9-tetrahydro-1H-pyrido[3,4-b]indol-1-yl)phenyl)-4,16-dioxo-6,9,12-trioxa-3,15-diazaoctadec-17-enoyl)-4-hydroxy-N-(4-(4-methylthiazol-5-yl)benzyl)pyrrolidine-2-carboxamide, Trifluoroacetic Acid]
- ER degradation ≥ 90% at 0.3 μM: ••
- DC50: 0.6 nM
